Test results from article PMC3345832, “EROD and MROD as Markers of Cytochrome P450 1A Activities in Hepatic Microsomes from Entire and Castrated Male Pigs” (Sensors (Basel, Switzerland), 2009).
pKi: −log10 of the molar value. Where two headings read alike, the source gives them in different places.

Experiments:
[1] = test system: EROD activity (7-ethoxyresorufin O-deethylation); experiment: Enzyme kinetics of resorufin formation from 7-ethoxyresorufin (EROD) in hepatic microsomes; type: in vitro ADME, pig; settings: male, pig, 95% confidence interval
Procedure: (§1) Incubation mixtures contained microsomal protein (0.2 mg), phosphate buffer (pH 7.4, 50 mM) and substrate (2 μM; 7-ethoxyresofurin for EROD activity or 7-methoxyresofurin for MROD activity). Reactions were started by the addition of 1 mM NADPH. The reaction mixture, in a final volume of 500 μL, was incubated in a water bath at 37 °C for 5 min. Reactions were terminated with ice-cold 100% methanol (500 μL), followed by centrifugation at 7,500 × g for 5 min. Resorufin concentrations in the supernatants were measured with HPLC the same day as described above. EROD and MROD activities were expressed as pmol of resorufin per milligram protein and minute.
(§2) The studies were performed by using two pools of microsomes from six entire (pool 1) and six castrated male pigs (pool 2). For the kinetic studies, EROD and MROD activities were determined over the substrate concentration range from 0.0156 to 3.0 μM. […] The final concentration of DMSO in the incubations was below 0.5%.
(§3) Michaelis-Menten parameters (Km and Vmax values) and inhibition constants (Ki) were determined by a GraphPad Prism version 4.0 for Windows, GraphPad Software (San Diego California, USA). Data were additionally assayed by a SigmaPlot Enzyme Kinetics 1.3 software. Visual analysis of Eadie-Hofstee plots was used to categorise enzyme kinetics as mono- or biphasic, i.e. whether one or more enzymes participate in the reaction. When Eadie-Hofstee plots indicated monophasic kinetics, the following equation was applied to estimate kinetic parameters: V=(Vmax*S)/(Km+S); when Eadie-Hofstee plots indicated biphasic kinetics, the following equation was applied: V=(Vmax1*S)/(Km1+S)+ (V max2*S)/(Km2+S).

[2] = test system: porcine liver microsomes (EROD); experiment: as above; type: in vitro ADME, pig; settings: 95% confidence interval
Procedure: as §1, §2, §3

[3] = test system: porcine liver microsomes (EROD); parameters: method as in Messina et al. [6]; settings: ref Messina et al. [6]; cited from earlier work
[4] = test system: porcine liver microsomes (MROD); settings: cited from earlier work
[5] = test system: porcine liver microsomes (MROD); settings: 95% confidence interval
CYP1A (MROD activity) = experiment: in vitro; settings: male, pig, pH 7.4, Ki
Procedure: as §1
(§4) The studies were performed by using two pools of microsomes from six entire (pool 1) and six castrated male pigs (pool 2). […] For the inhibition study, the substrate range was from 0.25 to 2 µM. […] The inhibitors were dissolved in DMSO, and the same volume of DMSO was added to the control incubations. The final concentration of DMSO in the incubations was below 0.5%. All inhibitors were added before the addition of the substrate. […] Inhibition is expressed as the percent of the corresponding incubation control.
(§5) Michaelis-Menten parameters (Km and Vmax values) and inhibition constants (Ki) were determined by a GraphPad Prism version 4.0 for Windows, GraphPad Software (San Diego California, USA). Data were additionally assayed by a SigmaPlot Enzyme Kinetics 1.3 software. […] When Eadie-Hofstee plots indicated monophasic kinetics, the following equation was applied to estimate kinetic parameters: V=(Vmax*S)/(Km+S); when Eadie-Hofstee plots indicated biphasic kinetics, the following equation was applied: V=(Vmax1*S)/(Km1+S)+ (V max2*S)/(Km2+S).

[6] = test system: EROD activities in porcine liver microsomes (CYP1A); settings: for EROD activity, % of the control values: 20 μM inhibitor, microsomes from entire and castrated male pigs; for Ki, EROD: substrate 0.25 to 2 µM
Procedure: as §1, §4, §5

CYP1A (EROD activity) = experiment: in vitro; settings: male, pig, substrate 0.25 to 2 µM
Procedure: as §1, §4, §5

[7] = test system: MROD activities in porcine liver microsomes (CYP1A)
Procedure: as §1, §4, §5

[8] = Stability of resorufin in incubation supernatants; type: physicochemical
Procedure: The stability was assessed by measuring resorufin in the supernatant (n=8) stored in +4 °C and protected from light for several days and measured at days 0, 1, 2, 3, 5 and 8. A pool of microsomes used for the stability study was previously used for study on linearity with microsomal protein. Resorufin concentrations in those samples varied from 0.9 to 8.1 pmol/mL. Stability of resorufin stored in room temperature was assessed using four samples with resorufin concentrations from 1.5 to 2.6 pmol/mL.

[9] = 20 μM inhibitor, microsomes from entire and castrated male pigs
[10] = microsomes from castrated pigs, substrate 0.25 to 2 µM
[11] = microsomes from entire male pigs, substrate 0.25 to 2 µM

CCOc1ccc2nc3ccc(=O)cc-3oc2c1 [7-ethoxyresorufin]
Km at 5 min ([1]; liver microsomes (pool 1, six entire male pigs), pH 7.4, entire male pigs, read-out: Km (CI), EROD high-affinity component): 0.01 µM | Km at 5 min ([1]; liver microsomes (pool 1, six entire male pigs), pH 7.4, entire male pigs, read-out: Km (CI), EROD low-affinity component): 0.54 µM | Km at 5 min ([1]; liver microsomes (pool 2, six castrated male pigs), pH 7.4, castrated male pigs, read-out: Km (CI), EROD high-affinity component): 0.01 µM | Km at 5 min ([1]; liver microsomes (pool 2, six castrated male pigs), pH 7.4, castrated male pigs, read-out: Km (CI), EROD low-affinity component): 1.25 µM | Vmax (CI), EROD high-affinity component ([2]; castrated male pigs): 7.3 (5.5 – 9.0) pmol/min/mg | Vmax (CI), EROD low-affinity component ([2]; castrated male pigs): 15.2 (12.9 – 17.6) pmol/min/mg | Vmax (CI), EROD high-affinity component ([2]; entire male pigs): 5.9 (3.1 – 8.6) pmol/min/mg | Vmax (CI), EROD low-affinity component ([2]; entire male pigs): 11.7 (9.6 – 13.8) pmol/min/mg | Km [3]: 0.64 µM

COc1ccc2nc3ccc(=O)cc-3oc2c1 [7-methoxyresorufin]
Km [4]: 2.2 µM | Vmax (CI), MROD ([5]; castrated male pigs): 2.6 (2.5 – 2.8) pmol/min/mg | Vmax (CI), MROD ([5]; entire male pigs): 0.8 (0.7 – 0.9) pmol/min/mg

O=c1cc(-c2ccccc2)oc2c1ccc1ccccc12 [ANF, α-naphthoflavone]
Ki at 5 min (CYP1A (MROD activity)): 0.014 µM | EROD activity, % of the control values [6]: 19–23% | Ki at 5 min (CYP1A (EROD activity); liver microsomes (pool 1, six entire male pigs), pH 7.4, probe 7-ethoxyresorufin, 0.25 to 2 µM, Ki, microsomes from entire male pigs): 0.031 µM | Ki at 5 min (CYP1A (EROD activity); liver microsomes (pool 2, six castrated male pigs), pH 7.4, probe 7-ethoxyresorufin, 0.25 to 2 µM, Ki, microsomes from castrated pigs): 0.096 µM | MROD activity, % of the control values [7, 9]: 30% | pKi ([7]; male, pig, 5 min, pH 7.4): 7.74

Cc1c2ccncc2c(C)c2c1[nH]c1ccccc12 [Ellipticine, ellipticine]
Ki at 5 min (CYP1A (MROD activity); [10]): 0.019 µM | Ki at 5 min (CYP1A (MROD activity); [11]): 0.024 µM | EROD activity, % of the control values [6]: 8–10% | Ki at 5 min (CYP1A (EROD activity); pH 7.4, Ki, microsomes from castrated pigs): 0.021 µM | Ki at 5 min (CYP1A (EROD activity); pH 7.4, Ki, microsomes from entire male pigs): 0.017 µM | MROD activity, % of the control values [7, 9]: 14–16%

Cc1nc2c([nH]1)c(=O)n(C)c(=O)n2Cc1ccco1 [Furafylline, furafylline]
Ki at 5 min (CYP1A (MROD activity); [10]): […] | Ki at 5 min (CYP1A (MROD activity); [11]): […] | Effect on EROD activities ([6]; 10-100 μM, pre-incubated with microsomes and NADPH): did not affect EROD activities | Ki, EROD ([6]; microsomes from castrated pigs): no ^* | Ki, EROD ([6]; microsomes from entire male pigs): no ^* | MROD activity, % of the control values ([7]; 100 μM inhibitor, pre-incubated 10 min with NADPH, entire and castrated male pigs): 55–61% | Inhibition of MROD activity without pre-incubation ([7]; no pre-incubation of microsomes and inhibitor with NADPH (data not shown)): No inhibition

O=c1ccc2nc3ccc(O)cc3oc-2c1 [Resorufin]
Time stable in supernatants ([8]; stored at 4 °C under dark conditions): at least 5 days | Time stable in supernatants ([8]; stored at room temperature): at least 1 day
